Drawing on patent publication US9920032B2, “Heterocyclic compounds useful as pim kinase inhibitors” (Incyte Corporation, priority 2015, dated 2018), this text covers IC50 for 20 compounds.

What all share (assay type): biochemical
The target in one experiment is Pim-1 (Homo sapiens (Human), UniProt P11309). Nature of the experiment: Pim-1 kinase assay. The conditions noted are these: 1 mM ATP; read-out: PIM1 IC50. How it is done: (§1) Pim-1 and Pim-3 kinase assays—20 μL reactions were run in white 384 well polystyrene plates dotted with 0.8 μL compound/DMSO in the assay buffer (50 mM Tris, pH 7.5, 0.01% Tween-20, 5 mM mgCl2, 0.01% BSA, 5 mM DTT), containing 0.05 μM Biotin-labeled BAD peptide substrate (AnaSpec 62269), 1 mM ATP, and 2.5 pM (Pim-1, Invitrogen PV3503) or 1.25 pM (Pim-3, Millipore 14-738) enzyme for 1 h at 25° C. Reactions were stopped by addition of 10 μL STOP Buffer (150 mM Tris, pH=7.5, 150 mM NaCl, 75 mM EDTA, 0.01% Tween-20, 0.3% BSA,) supplemented with Phospho-Bad (Ser112) Antibody (Cell Signaling 9291) diluted 666-fold, and Streptavidin donor beads (PerkinElmer 6760002) along with Protein-A acceptor beads (PerkinElmer 6760137) at […]. Supplementation of the STOP buffer with beads and stopping the reactions were done under reduced light. Prior to the stopping reactions STOP buffer with beads was preincubated for 1 h in the dark at room temperature. After stopping the reactions, plates were incubated for 1 h in the dark at room temperature before reading on a PHERAstar FS plate reader (BMG Labtech) under reduced light.

A further experiment has as its target Pim-2 (Homo sapiens (Human), UniProt Q9P1W9). Nature of the experiment: Pim-2 kinase assay. The conditions noted are these: 1 mM ATP; read-out: PIM2 IC50. The protocol:
Pim-2 kinase assay—20 μL reactions were run in white 384 well polystyrene plates dotted with 0.8 μL compound/DMSO in the assay buffer (50 mM Tris, pH 7.5, 0.01% Tween-20, 5 mM mgCl2, 0.01% BSA, 5 mM DTT), containing 0.05 μM Fluorescein-labeled CREBtide peptide substrate (Invitrogen PV3508), 1 mM ATP, and 1 nM enzyme (Invitrogen PV3649) for 2 h at 25° C. Reactions were stopped by addition of 10 μL TR-FRET Dilution Buffer (Invitrogen PV3574) with 30 mM EDTA and 1.5 nM LanthaScreen Tb-CREB pSer133 antibody (Invitrogen PV3566). After 30 min. incubation at room temperature, plates were read on a PHERAstar FS plate reader (BMG Labtech).

A further experiment has as its target Pim-3 (Homo sapiens (Human), UniProt Q86V86). Nature of the experiment: Pim-3 kinase assay. The following applies: 1 mM ATP; read-out: PIM3 IC50. The protocol:
as §1

Chain of Pim-1 (P11309 whole entry): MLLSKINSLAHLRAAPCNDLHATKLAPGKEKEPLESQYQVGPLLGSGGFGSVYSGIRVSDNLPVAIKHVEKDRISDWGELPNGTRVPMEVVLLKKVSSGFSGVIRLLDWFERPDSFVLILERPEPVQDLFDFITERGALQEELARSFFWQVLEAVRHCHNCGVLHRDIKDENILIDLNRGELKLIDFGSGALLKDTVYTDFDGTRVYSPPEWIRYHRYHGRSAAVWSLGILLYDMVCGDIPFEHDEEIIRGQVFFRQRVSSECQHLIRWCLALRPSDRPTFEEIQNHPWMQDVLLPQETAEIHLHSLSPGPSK
Chain of Pim-2 (Q9P1W9 whole entry): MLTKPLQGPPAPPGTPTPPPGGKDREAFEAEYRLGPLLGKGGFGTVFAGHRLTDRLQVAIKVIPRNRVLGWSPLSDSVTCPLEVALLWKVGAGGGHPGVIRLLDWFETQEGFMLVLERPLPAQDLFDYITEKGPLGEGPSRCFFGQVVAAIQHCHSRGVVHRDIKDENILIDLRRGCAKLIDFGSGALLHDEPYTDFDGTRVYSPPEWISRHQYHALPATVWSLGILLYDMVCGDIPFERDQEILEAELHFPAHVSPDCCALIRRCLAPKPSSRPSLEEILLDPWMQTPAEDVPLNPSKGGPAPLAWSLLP

Turning to `COCCN(C)c1cnc2c(C(=O)Nc3cnccc3[C@@H]3C[C@H](C)C[C@H](N)C3)ccc(F)c2c1` [Example 51, N-(4-((1R,3S,5S)-3-Amino-5-methylcyclohexyl)pyridin-3-yl)-5-fluoro-3-((2-methoxyethyl)(methyl)amino)quinoline-8-carboxamide], the results for the 50% inhibitory concentration (IC50) at Pim-1, on Pim-2 and on Pim-3 were ≤ 10 nM, 100 to 1000 nM and ≤ 10 nM, respectively.

For the compound `C[C@@H]1C[C@H](N)C[C@H](c2ccncc2NC(=O)c2ccc(F)c3cc(N4C5CCCC4COC5)cnc23)C1` [Example 106, N-(4-((1R,3S,5S)-3-Amino-5-methylcyclohexyl)pyridin-3-yl)-3-(3-oxa-9-azabicyclo[3.3.1]nonan-9-yl)-5-fluoroquinoline-8-carboxamide], the IC50 was ≤ 10 nM on Pim-1, ≤ 100 nM at Pim-2 and ≤ 10 nM at Pim-3.

`CC(C)[C@H](C)Nc1cnc2c(C(=O)Nc3cnccc3[C@@H]3C[C@H](C)C[C@H](N)C3)ccc(F)c2c1` [Example 53, N-(4-((1R,3S,5S)-3-Amino-5-methylcyclohexyl)pyridin-3-yl)-5-fluoro-3-((S)-3-methylbutan-2-ylamino)quinoline-8-carboxamide]: the results for the IC50 at Pim-1, on Pim-2 and at Pim-3 were ≤ 10 nM, 100 to 1000 nM and ≤ 10 nM, respectively.

Turning to `CO[C@@H]1C[C@@H](C)N(c2cnc3c(C(=O)Nc4cnccc4[C@@H]4C[C@H](C)C[C@H](N)C4)ccc(F)c3c2)C1` [Example 156], the IC50 on Pim-1 is ≤ 10 nM; on Pim-2, ≤ 100 nM; at Pim-3 it was ≤ 10 nM.

On to `C[C@@H]1C[C@H](N)C[C@H](c2ccncc2NC(=O)c2ccc(F)c3cc(N4CCC[C@H](C)C4)cnc23)C1` [Example 113, N-(4-((1R,3S,5S)-3-Amino-5-methylcyclohexyl)pyridin-3-yl)-5-fluoro-3-((S)-3-methylpiperidin-1-yl)quinoline-8-carboxamide], for which the IC50 on Pim-1 was ≤ 10 nM; on Pim-2 it was ≤ 100 nM; at Pim-3 it was ≤ 10 nM.

For the compound `C[C@@H]1C[C@H](N)C[C@H](c2ccncc2NC(=O)c2ccc(F)c3cc(NCC(F)F)cnc23)C1` [Example 27, N-{4-[(1R,3S,5S)-3-Amino-5-methylcyclohexyl]pyridin-3-yl}-3-[(2,2-difluoroethyl)amino]-5-fluoroquinoline-8-carboxamide], the IC50 at Pim-1 is ≤ 10 nM; at Pim-2 it was ≤ 100 nM; on Pim-3, ≤ 10 nM.

As to `C[C@@H]1C[C@H](N)C[C@H](c2ccncc2NC(=O)c2ccc(F)c3cc(N4CC(=O)N5CCCC[C@@H]5C4)cnc23)C1` [Example 100, N-(4-((1R,3S,5S)-3-Amino-5-methylcyclohexyl)pyridin-3-yl)-5-fluoro-3-((R)-4-oxodihydro-1H-pyrido[1,2-a]pyrazin-2(6H,7H,8H,9H,9aH)-yl)quinoline-8-carboxamide], the values for the IC50 at Pim-1, at Pim-2 and at Pim-3 were ≤ 10 nM, ≤ 100 nM and ≤ 10 nM, respectively.

For the compound `C[C@@H]1C[C@H](N)C[C@H](c2ccncc2NC(=O)c2ccc(F)c3cc(N4CCCN(S(C)(=O)=O)CC4)cnc23)C1` [Example 124, N-(4-((1R,3S,5S)-3-Amino-5-methylcyclohexyl)pyridin-3-yl)-5-fluoro-3-(4-(methylsulfonyl)-1,4-diazepan-1-yl)quinoline-8-carboxamide], the results for the IC50 on Pim-1, at Pim-2 and at Pim-3 were ≤ 10 nM, ≤ 100 nM and ≤ 10 nM, respectively.

On to `CCc1cc2c(F)ccc(C(=O)Nc3cnccc3[C@@H]3C[C@H](C)C[C@H](N)C3)c2nn1` [Example 92, N-{4-[(1R,3S,5S)-3-Amino-5-methylcyclohexyl]pyridin-3-yl}-3-ethyl-5-fluorocinnoline-8-carboxamide], for which the IC50 on Pim-1 is ≤ 10 nM; on Pim-2 it was 1000 to 10000 nM; on Pim-3 it was 10 to 50 nM.

Turning to `C[C@@H]1C[C@H](N)C[C@H](c2ccncc2NC(=O)c2ccc(F)c3cc(C4CCOCC4)cnc23)C1` [Example 31, N-{4-[(1R,3S,5S)-3-Amino-5-methylcyclohexyl]pyridin-3-yl}-5-fluoro-3-(tetrahydro-2H-pyran-4-yl)quinoline-8-carboxamide], the values for the IC50 on Pim-1, on Pim-2 and at Pim-3 were ≤ 10 nM, 100 to 1000 nM and ≤ 10 nM, respectively.

On to `COCCN1CCN(c2cnc3c(C(=O)Nc4cnccc4[C@@H]4C[C@H](C)C[C@H](N)C4)ccc(F)c3c2)CC1=O` [Example 133, N-(4-((1R,3S,5S)-3-Amino-5-methylcyclohexyl)pyridin-3-yl)-5-fluoro-3-(4-(2-methoxyethyl)-3-oxopiperazin-1-yl)quinoline-8-carboxamide], for which the IC50 at Pim-1 was ≤ 10 nM; at Pim-2, 100 to 1000 nM; at Pim-3, ≤ 10 nM.

In the case of `C[C@@H]1C[C@H](N)C[C@H](c2ccncc2NC(=O)c2ccc(F)c3cc(N(C)[C@@H]4CCOC4)cnc23)C1` [Example 154, N-(4-((1R,3S,5S)-3-Amino-5-methylcyclohexyl)pyridin-3-yl)-5-fluoro-3-(methyl((R)-tetrahydrofuran-3-yl)amino)quinoline-8-carboxamide], the IC50 at Pim-1 is ≤ 10 nM; at Pim-2, 100 to 1000 nM; on Pim-3 it was ≤ 10 nM.

Take `C[C@@H]1C[C@H](N)C[C@H](c2ccncc2NC(=O)c2ccc(F)c3cc(N4CCN(C5CC5)C(=O)C4)cnc23)C1` [Example 114, N-(4-((1R,3S,5S)-3-Amino-5-methylcyclohexyl)pyridin-3-yl)-3-(4-cyclopropyl-3-oxopiperazin-1-yl)-5-fluoroquinoline-8-carboxamide]: the IC50 is ≤ 10 nM on Pim-1, ≤ 100 nM on Pim-2 and ≤ 10 nM on Pim-3.

Regarding `C[C@@H]1C[C@H](N)C[C@H](c2ccncc2NC(=O)c2ccc(F)c3cc(N4CCCC[C@H]4C)cnc23)C1` [Example 169, N-(4-((1R,3S,5S)-3-Amino-5-methylcyclohexyl)pyridin-3-yl)-5-fluoro-3-((R)-2-methylpiperidin-1-yl)quinoline-8-carboxamide], the values for the IC50 at Pim-1, at Pim-2 and on Pim-3 were ≤ 10 nM, ≤ 100 nM and ≤ 10 nM, respectively.

Consider `C[C@@H]1C[C@H](N)C[C@H](c2ccncc2NC(=O)c2ccc(F)c3cc(N4CC[C@H](F)C4)cnc23)C1` [Example 5, N-{4-[(1R,3S,5S)-3-Amino-5-methylcyclohexyl]pyridin-3-yl}-5-fluoro-3-[(3S)-3-fluoropyrrolidin-1-yl]quinoline-8-carboxamide], for which the figures for the IC50 on Pim-1, at Pim-2 and on Pim-3 were ≤ 10 nM, ≤ 100 nM and ≤ 10 nM, respectively.

In the case of `CCC1CCCCN1c1cnc2c(C(=O)Nc3cnccc3[C@@H]3C[C@H](C)C[C@H](N)C3)ccc(F)c2c1` (stereo partly drawn) [Example 57, N-(4-((1R,3S,5S)-3-Amino-5-methylcyclohexyl)pyridin-3-yl)-3-(2-ethylpiperidin-1-yl)-5-fluoroquinoline-8-carboxamide], the values for the IC50 on Pim-1, at Pim-2 and at Pim-3 were ≤ 10 nM, ≤ 100 nM and 10 to 50 nM, respectively.

With `C[C@@H]1C[C@H](N)C[C@H](c2ccncc2NC(=O)c2ccc(F)c3cc(N4CCN5C(=O)CCC5C4)cnc23)C1` (stereo partly drawn) [Example 84, N-(4-((1R,3S,5S)-3-Amino-5-methylcyclohexyl)pyridin-3-yl)-5-fluoro-3-(6-oxohexahydropyrrolo[1,2-a]pyrazin-2(1H)-yl)quinoline-8-carboxamide], the IC50 at Pim-1 is ≤ 10 nM; on Pim-2 it was 100 to 1000 nM; on Pim-3, ≤ 10 nM.

For the compound `C[C@@H]1C[C@H](N)C[C@H](c2ccncc2NC(=O)c2ccc(F)c3cc(N4CCCC4=O)cnc23)C1` [Example 78, N-(4-((1R,3S,5S)-3-Amino-5-methylcyclohexyl)pyridin-3-yl)-5-fluoro-3-(2-oxopyrrolidin-1-yl)quinoline-8-carboxamide], the figures for the IC50 at Pim-1, on Pim-2 and at Pim-3 were ≤ 10 nM, 100 to 1000 nM and ≤ 10 nM, respectively.

As to `C[C@@H]1C[C@H](N)C[C@H](c2ccncc2NC(=O)c2ccc(F)c3cc(-c4c(F)cccc4F)nnc23)C1` [Example 91, N-{4-[(1R,3S,5S)-3-amino-5-methylcyclohexyl]pyridin-3-yl}-3-(2,6-difluorophenyl)-5-fluorocinnoline-8-carboxamide], the results for the IC50 at Pim-1, at Pim-2 and at Pim-3 were ≤ 10 nM, 1000 to 10000 nM and 10 to 50 nM, respectively.

As for `C[C@@H]1C[C@H](N)C[C@H](c2ccncc2NC(=O)c2ccc(F)c3cc(C#CC4CC4)cnc23)C1` [Example 14, N-{4-[(1R,3S,5S)-3-Amino-5-methylcyclohexyl]pyridin-3-yl}-3-(cyclopropylethynyl)-5-fluoroquinoline-8-carboxamide], the IC50 was ≤ 10 nM at Pim-1, 100 to 1000 nM on Pim-2 and ≤ 10 nM at Pim-3.
